The text below walks through data of ChEMBL document CHEMBL3045175, “Synthesis and Neuromuscular Blocking Activity of 16-Piperidino Epiandrosterone Derivatives” (Med Chem Res, 2005).

Assay [1] is filed under the species Gallus gallus. The assay is described as follows: Binding affinity to acetylcholine receptor in isolated Gallus gallus (chicken) biventar cervicis muscle assessed as reduction of twitch response to carbachol in presence of neostigmine.
The nature of assay [2]: (§1) Inhibition of Electrophorus electricus (electric eel) acetylcholinesterase.
For a further assay, the system named is Electrophorus electricus. The assay is described as §1.
For assay [3], the species on record is Gallus gallus. The assay is described as follows: Binding affinity to acetylcholine receptor in isolated Gallus gallus (chicken) biventar cervicis muscle assessed as reduction of twitch response to carbachol.
For assay [4], the species on record is Gallus gallus. Kind of assay: Binding affinity to acetylcholine receptor in isolated Gallus gallus (chicken) biventar cervicis muscle assessed as reduction of twitch response to carbachol after washout.
For assay [5], the species on record is Gallus gallus. The assay is described as follows: Binding affinity to acetylcholine receptor in isolated Gallus gallus (chicken) biventar cervicis muscle assessed as reduction of twitch response to carbachol at 1 uM up to 10 min.
Assay [6] is filed under the species Gallus gallus. The assay is described as follows: Binding affinity to acetylcholine receptor in isolated Gallus gallus (chicken) biventar cervicis muscle assessed as reduction of twitch response to carbachol at 5 uM up to 10 min.

Structures are written as SMILES. Active and inactive are the calls of the source. The calls are words filed in the database; no cut-off is given here.

In the case of `CC(=O)O[C@H]1[C@@H](N2CCCCC2)C[C@H]2[C@@H]3CC[C@H]4C[C@@H](N5CCCC5)CC[C@]4(C)[C@H]3CC[C@@]21C`, the outcome in the assay filed under Gallus gallus [1] and in the assay filed under Gallus gallus [4] was inactive. In assay [2], this molecule returned a Ki of 980 nM. Besides, in the assay on Electrophorus electricus, the inhibition result was “Dose-dependent effect”. For the same molecule, the K in the assay filed under Gallus gallus [3] is 0.2 µM. The outcome in the assay filed under Gallus gallus [5] was Active.

As to `C[C@]12CC[C@H](N3CCCC3)C[C@@H]1CC[C@@H]1[C@@H]2CC[C@]2(C)[C@@H](O)[C@@H](N3CCCCC3)C[C@@H]12`, the result in the assay filed under Gallus gallus [1] and in the assay listed under Gallus gallus [4] was inactive. In assay [2], this molecule gave a Ki of 620 nM. Besides, in the assay with Electrophorus electricus, the inhibition entry was “Dose-dependent effect”. For the same molecule, in the assay listed under Gallus gallus [6], the outcome was Active. Also, the K in the assay filed under Gallus gallus [3] came to 0.9 µM.

For orientation: Ki means the dissociation constant of the complex between target and ligand, obtained from inhibition or displacement. The low end stands for tighter binding, the high end for weaker binding.
